Reference: the NIST ThermoML archive (doi:10.1016/j.jct.2015.03.019)
Several values for one entry are separate records, joined by “and”; a condition that tells them apart may be missing. Equal entries are not always repeated.

Assay: molar heat capacity at constant pressure
Details: 101.33 kPa, Small (less than 1 g) adiabatic calorimetry

CC(C)(C)c1ccc(Oc2ccccc2)cc1 [4-tert-butylphenyl phenyl ether]
molar heat capacity at constant pressure
Details | Crystal | Liquid
120 K | 144.42 J/K/mol | –
120.73 K | 145 J/K/mol | –
121.96 K | 146.09 J/K/mol | –
123.18 K | 147.08 J/K/mol | –
124.42 K | 148.25 J/K/mol | –
125.65 K | 149.33 J/K/mol | –
126.9 K | 150.41 J/K/mol | –
128.13 K | 151.57 J/K/mol | –
129.37 K | 152.57 J/K/mol | –
130 K | 153.32 J/K/mol | –
130.6 K | 153.82 J/K/mol | –
131.84 K | 154.9 J/K/mol | –
133.08 K | 155.9 J/K/mol | –
134.32 K | 157.23 J/K/mol | –
135.56 K | 158.22 J/K/mol | –
136.81 K | 159.31 J/K/mol | –
138.05 K | 160.3 J/K/mol | –
139.3 K | 161.47 J/K/mol | –
140 K | 161.97 J/K/mol | –
140.55 K | 162.46 J/K/mol | –
141.8 K | 163.38 J/K/mol | –
143.04 K | 164.54 J/K/mol | –
144.3 K | 165.79 J/K/mol | –
145.55 K | 166.71 J/K/mol | –
146.83 K | 167.95 J/K/mol | –
148.09 K | 169.12 J/K/mol | –
149.35 K | 169.95 J/K/mol | –
150 K | 170.61 J/K/mol | –
150.61 K | 171.11 J/K/mol | –
151.87 K | 172.28 J/K/mol | –
153.13 K | 173.44 J/K/mol | –
154.39 K | 174.44 J/K/mol | –
155.66 K | 175.27 J/K/mol | –
156.93 K | 176.43 J/K/mol | –
158.2 K | 177.6 J/K/mol | –
159.47 K | 178.43 J/K/mol | –
160 K | 179.01 J/K/mol | –
160.74 K | 179.34 J/K/mol | –
162.02 K | 180.67 J/K/mol | –
163.29 K | 181.92 J/K/mol | –
164.57 K | 182.92 J/K/mol | –
165.84 K | 184.08 J/K/mol | –
167.17 K | 185.33 J/K/mol | –
168.45 K | 186.16 J/K/mol | –
169.73 K | 187.16 J/K/mol | –
170 K | 187.41 J/K/mol | –
171.02 K | 188.24 J/K/mol | –
172.31 K | 189.4 J/K/mol | –
173.6 K | 190.48 J/K/mol | –
174.89 K | 191.57 J/K/mol | –
176.18 K | 192.9 J/K/mol | –
177.47 K | 193.64 J/K/mol | –
178.77 K | 194.81 J/K/mol | –
180 K | 195.72 J/K/mol | –
180.07 K | 195.97 J/K/mol | –
181.37 K | 197.05 J/K/mol | –
183.98 K | 199.21 J/K/mol | –
185.29 K | 200.46 J/K/mol | –
186.59 K | 201.63 J/K/mol | –
187.96 K | 202.71 J/K/mol | –
189.28 K | 203.54 J/K/mol | –
190 K | 204.12 J/K/mol | –
190.59 K | 204.62 J/K/mol | –
191.9 K | 205.95 J/K/mol | –
193.22 K | 207.03 J/K/mol | –
194.54 K | 208.28 J/K/mol | –
195.86 K | 209.36 J/K/mol | –
197.19 K | 210.52 J/K/mol | –
198.51 K | 211.69 J/K/mol | –
199.84 K | 212.52 J/K/mol | –
200 K | 212.52 J/K/mol | –
202.54 K | 214.35 J/K/mol | –
203.91 K | 215.51 J/K/mol | –
205.26 K | 216.84 J/K/mol | –
206.62 K | 217.92 J/K/mol | –
209.43 K | 220.42 J/K/mol | –
210 K | 221.08 J/K/mol | –
212.14 K | 222.5 J/K/mol | –
213.5 K | 223.66 J/K/mol | –
214.85 K | 224.82 J/K/mol | –
216.21 K | 225.99 J/K/mol | –
218.93 K | 228.56 J/K/mol | –
220 K | 229.81 J/K/mol | –
220.29 K | 230.06 J/K/mol | –
221.64 K | 231.06 J/K/mol | –
222.99 K | 232.06 J/K/mol | –
224.34 K | 233.39 J/K/mol | –
225.69 K | 234.72 J/K/mol | –
227.04 K | 235.72 J/K/mol | –
228.4 K | 237.05 J/K/mol | –
229.74 K | 238.29 J/K/mol | –
230 K | 238.71 J/K/mol | –
231.18 K | 240.12 J/K/mol | –
236.59 K | 245.11 J/K/mol | –
237.93 K | 246.03 J/K/mol | –
239.28 K | 247.27 J/K/mol | –
240 K | 247.77 J/K/mol | –
240.62 K | 248.44 J/K/mol | –
241.97 K | 249.68 J/K/mol | –
243.31 K | 250.76 J/K/mol | –
244.65 K | 252.18 J/K/mol | –
248.66 K | 256.25 J/K/mol | –
250 K | 257.67 J/K/mol and 257.5 J/K/mol | –
251.33 K | 258.91 J/K/mol | –
252.75 K | 260.49 J/K/mol | –
254.09 K | 261.41 J/K/mol | –
255.42 K | 262.82 J/K/mol | –
256.75 K | 264.07 J/K/mol | –
260 K | 267.48 J/K/mol | –
260.74 K | 268.39 J/K/mol | –
262.06 K | 269.56 J/K/mol | –
263.38 K | 270.8 J/K/mol | –
264.71 K | 272.05 J/K/mol | –
266.03 K | 273.38 J/K/mol | –
267.35 K | 274.54 J/K/mol | –
268.67 K | 275.96 J/K/mol | –
269.98 K | 276.87 J/K/mol | –
270 K | 277.2 J/K/mol | –
271.3 K | 278.45 J/K/mol | –
272.62 K | 279.7 J/K/mol | –
276.62 K | 283.69 J/K/mol | –
277.92 K | 285.02 J/K/mol | –
279.22 K | 286.27 J/K/mol | –
280 K | 287.1 J/K/mol | –
280.53 K | 287.51 J/K/mol | –
281.83 K | 289.01 J/K/mol | –
283.13 K | 290.09 J/K/mol | –
284.43 K | 291.09 J/K/mol | –
288.3 K | 295.16 J/K/mol | –
289.59 K | 296.49 J/K/mol | –
290 K | 296.41 J/K/mol | –
290.87 K | 297.33 J/K/mol | –
292.15 K | 298.24 J/K/mol | –
293.43 K | 298.91 J/K/mol | –
294.71 K | 299.82 J/K/mol | –
298.15 K | 302.98 J/K/mol | –
299.77 K | 304.06 J/K/mol | –
300 K | 304.48 J/K/mol | –
301.26 K | 305.47 J/K/mol | –
302.92 K | 307.05 J/K/mol | –
304.58 K | 308.88 J/K/mol | –
306.25 K | 310.3 J/K/mol | –
309.6 K | 312.87 J/K/mol | –
310 K | 313.21 J/K/mol | –
311.29 K | 315.62 J/K/mol | –
314.7 K | 320.94 J/K/mol | –
316.41 K | 322.19 J/K/mol | –
318.13 K | 325.68 J/K/mol | –
319.86 K | 330.17 J/K/mol | –
320 K | 321.69 J/K/mol | –
321.61 K | 331 J/K/mol | –
327.84 K | 328.26 J/K/mol | 384.38 J/K/mol
330 K | – | 386.29 J/K/mol
334.3 K | – | 391.36 J/K/mol
340 K | – | 394.94 J/K/mol
340.65 K | – | 394.52 J/K/mol
347.01 K | – | 398.93 J/K/mol
350 K | – | 403.25 J/K/mol
351.17 K | – | 405 J/K/mol
353.12 K | – | 407.24 J/K/mol
355.08 K | – | 408.24 J/K/mol
357.06 K | – | 409.82 J/K/mol
359.07 K | – | 410.65 J/K/mol
360 K | – | 411.57 J/K/mol
361.08 K | – | 411.57 J/K/mol
363.12 K | – | 412.65 J/K/mol
365.18 K | – | 413.4 J/K/mol
367.25 K | – | 414.06 J/K/mol
369.35 K | – | 414.89 J/K/mol
370 K | – | 414.89 J/K/mol
371.48 K | – | 415.81 J/K/mol
